Several values for one entry are separate records, joined by “and”; a condition that tells them apart may be missing. Identical values can stand only once.
Key:
[1] = system: cells expressing pluripotency markers; experiment: Viability (MTS, OD 490 nm) of cells expressing pluripotency markers treated with GSK-3B inhibitors; format: cell-based, human; conditions: for Raw data (duplicate): optical density at 490 nm (MTS), single wells
Description: Derivation and maintenance of cells expressing pluripotency makers was conducted as has been described in Example 2. Cells were grown in DMEM:F12 supplemented with 2% FCS (Invitrogen), 100 ng/ml Activin A, 20 ng/ml Wnt-3a, and 50 ng/ml IGF (R&D Biosystems). Cells were seeded at a density of 10,000 cells/cm^2 on Falcon polystyrene flasks and grown in monolayer culture at 37° C., 5% CO2, low oxygen. After reaching 60-70% confluence, cells were passed by washing the monolayer with PBS and incubating with TrypLE (Invitrogen) for 3-5 minutes to allow detachment and single cell dispersal.
Screening was conducted using test compounds from a proprietary library of small molecules selected for their ability to inhibit GSK-3B enzyme activity. Compounds from this library were made available as 1 mM stocks, in a 96-well plate format in 50 mM HEPES, 30% DMSO. For assay, cells expressing pluripotency markers were washed, counted, and plated in normal culture medium at a seeding density of 20,000 cells per well in 96-well clear-bottom, dark-well plates (Costar). This seeding density was previously determined to yield optimal monolayer formation in overnight culture. On the following day, culture medium was removed, cell monolayers were rinsed three times with PBS, and test compounds were added to the wells in 80 μl aliquots, each diluted into assay medium at a final assay concentration of 10 μM. On day 2 of the assay, medium was removed from each well and replaced with a fresh aliquot of test compounds diluted into assay medium. Assay medium on days 1 and 2 of culture consisted of DMEM:F12 supplemented with 0.5% FCS and 100 ng/ml Activin A. On days 3 and 4 of culture, medium was removed from each well and replaced with DMEM:F12 supplemented with 2% FCS and 100 ng/ml Activin A (no test compound). On day 4 of assay, 15 μl of MTS (Promega) was added to each well and plates were incubated at 37° C. for 1.5 to 4 hours prior to reading optical density at 490 nm on a SpectraMax (Molecular Devices) instrument. Statistical measures consisting of mean, standard deviation, and coefficient of variation were calculated for each duplicate set. Toxicity was calculated for each test well relative to a positive control (wells treated with Activin A and Wnt3a on days 1 and 2 of culture).
A larger proportion of the compounds have minimal or no measurable toxicity in this cell-based assay.
A small panel of select compounds was repeat tested over a narrow dose titration range, again using cells expressing pluripotency markers in a similar assay as described above.

[2] = system: human embryonic stem cells (H9 or H1 lines); experiment: Plate reader assay (MTS, OD490): proliferation of human embryonic stem cells; format: cell-based
Description: Maintenance of human embryonic stem cells (H9 or H1 lines) was conducted as described in Example 1. Colonies of cells were maintained in an undifferentiated, pluripotent state with passage on average every four days. Passage was performed by exposing cell cultures to a solution of collagenase (1 mg/ml; Sigma-Aldrich) for 10 to 30 minutes at 37° C. followed by gentle scraping with a pipette tip to recover cell clusters. Clusters were allowed to sediment and washed to remove residual collagenase. Cell clusters were split at a ratio of 1:3 monolayer area for routine culture or a 1:1 ratio for immediate assay. The human embryonis stem cell lines used for these examples were maintained at passage numbers less than 50 and routinely evaluated for normal karyotypic phenotype as well as absence of mycoplasm contamination.
Cell clusters used in assay were evenly resuspended in normal culture medium and plated into MATRIGEL-coated 96-well Packard VIEWPLATES (PerkinElmer) in volumes of 100 μl/well. MEF conditioned medium supplemented with 8 ng/ml bFGF) was used for initial plating and recovery. Daily feeding was conducted by aspirating spent culture medium from each well and replacing with an equal volume of fresh medium. Plates were maintained at 37° C. in a humidified box, 5% CO2 throughout the duration of assay.
Primary screening assays were initiated by aspirating culture medium from each well followed by three washes in PBS to remove residual growth factors and serum. Test volumes of 80-100 μl per well were added back containing DMEM:F12 base medium (Invitrogen) supplemented with 0.5% FCS (HyClone) and 100 ng/ml activin A (R&D Biosystems) and 10 μM test compound. […]
On day 4 of assay, […] of MTS (Promega) was added to each well and plates were incubated at 37° C. for 1.5 to 4 hours. Densitometric readings at OD490 were determined using a Molecular Devices spectrophotometer plate reader. Average readings for replicate sets were calculated along with standard deviation and coefficient of variation. […]

[3] = system: human embryonic stem cells (H9 line); experiment: High content screening assay: total cell number (proliferative response); format: cell-based
Description: (§1) Maintenance of human embryonic stem cells (H9 line) was conducted as described in Example 1. Colonies of cells were maintained in an undifferentiated, pluripotent state with passage on average every four days. Passage was performed by exposing cell cultures to a solution of collagenase (1 mg/ml; Sigma-Aldrich) for 10 to 30 minutes at 37° C. followed by gentle scraping with a pipette tip to recover cell clusters. Clusters were allowed to sediment by gravity, followed by washing to remove residual collagenase. Cell clusters were split at a 1:3 ratio for routine maintenance culture or a 1:1 ratio for immediate assay. The human embryonic stem cell lines used were maintained at passage numbers less than passage 50 and routinely evaluated for normal karyotypic phenotype and absence of mycoplasma contamination.
(§2) Cell clusters used in the assay were evenly resuspended in normal culture medium and plated onto MATRIGEL-coated 96-well Packard VIEWPLATES (PerkinElmer) in volumes of 100 μl/well. MEF conditioned medium supplemented with 8 ng/ml bFGF was used for initial plating and recovery. Daily feeding was conducted by aspirating spent culture medium from each well and replacing with an equal volume of fresh medium. Plates were maintained at 37° C., 5% CO2 in a humidified box throughout the duration of assay.
Screening was conducted using test compounds from a proprietary library of small molecules selected for their ability to inhibit GSK-3B enzyme activity. Compounds from this library were made available as 1 mM stocks, in a 96-well plate format in 50 mM HEPES, 30% DMSO. Screening compounds were tested in triplicate or duplicate sets. Primary screening assays were initiated by aspirating culture medium from each well followed by three washes in PBS to remove residual growth factors and serum. Test volumes of 80 to 100 μl per well were added back containing DMEM:F12 base medium (Invitrogen) supplemented with 0.5% FCS (HyClone) and 100 ng/ml activin A (R&D Biosystems) plus […] test compound. Positive control wells contained the same base medium, substituting 10-20 ng/ml Wnt3a (R&D Biosystems) for the test compound. Negative control wells contained base medium with 0.5% FCS and activin A alone (AA only) or alternatively, 0.5% FCS without activin A or Wnt3a (no treatment). Wells were aspirated and fed again with identical solutions on day 2 of assay. On days 3 and 4, all assay wells were aspirated and converted to DMEM:F12 supplemented with 2% FCS and 100 ng/ml activin A (without test compound or Wnt3a); parallel negative control wells were maintained in DMEM:F12 base medium with 2% FCS and activin A (AA only) or alternatively, 2% FCS without activin A (no treatment). […]

[4] = system: HNF-3beta; experiment: High content screening assay: HNF-3beta protein expression (total intensity); format: cell-based, human
Description: as §1
as §2, with “assay. […]” for “assay.”

[5] = system: Sox17; experiment: High content screening assay: Sox17 protein expression (total intensity); format: cell-based, human
Description: as §1
as §2, with “assay. […]” for “assay.”

[6] = total intensity normalized to Wnt3a/Activin A positive control

For `OCCC#Cc1nc(-c2ccc(F)cc2)c(-c2ccncc2)n1CCCc1ccccc1` [RWJ67657], the Average ([1]; MTS viability readout, average of duplicate raw data) was 0.644, the “Raw data (duplicate), first value” ([1]; MTS viability readout, first of duplicate wells) was 0.629 and the “Raw data (duplicate), second value” ([1]; MTS viability readout, second of duplicate wells) was 0.659. The Average ([1]; cmpd conc 2.5 uM, mean optical density at 490 nm (MTS) of duplicate) was 0.7971, the “Raw data (duplicate)” value ([1]; cmpd conc 2.5 uM) was 0.8041 and 0.7900 and the “% Control” value ([1]; cmpd conc 2.5 uM, viability relative to AA + Wnt3a positive control, MTS day 4) was 93.2%. The Average ([1]; cmpd conc 5 uM, mean optical density at 490 nm (MTS) of duplicate) was 0.8183, the “Raw data (duplicate)” value ([1]; cmpd conc 5 uM) was 0.8047 and 0.8319 and the “% Control” value ([1]; cmpd conc 5 uM, viability relative to AA + Wnt3a positive control, MTS day 4) was 96.2%. The Average ([1]; cmpd conc 10 uM, mean optical density at 490 nm (MTS) of duplicate) was 0.6052, the “Raw data (duplicate)” value ([1]; cmpd conc 10 uM) was 0.6195 and 0.5908 and the “% Control” value ([1]; cmpd conc 10 uM, viability relative to AA + Wnt3a positive control, MTS day 4) was 66.5%. For the same molecule, the “% Control” value ([1]; viability as % of control) was 77.7%, the “% Control Value” ([2]; 10 μM test compound, MTS OD490 on day 4, relative to Activin A/Wnt3a positive control) was 84.7% and the “Average (of Raw Data)” value ([2]; mean of replicate raw plate-reader readings (MTS, OD490), proliferation of human embryonic stem cells) was 1.2242. For the same molecule, the “% Control” value ([2]; relative to the AA/Wnt3a/DMSO positive control of the same plate (= 100.0)) was 84.7%, the “Proliferative Response Total cells (HNF-3b Expression set)” value ([3]; total cell number in wells stained for HNF-3b) was 6058 and the “Proliferative Response Total cells (SOX-17 Expression set)” value ([3]; total cell number in wells stained for SOX-17) was 6376. The “Proliferative Response Fold over Wnt 3a/AA control (HNF-3b Expression set)” value ([3]; total cells normalized to Wnt3a/Activin A positive control, wells stained for HNF-3b) was 0.3852 Fold over Wnt 3a/AA control, the “Proliferative Response Fold over Wnt 3a/AA control (SOX-17 Expression set)” value ([3]; total cells normalized to Wnt3a/Activin A positive control, wells stained for SOX-17) was 0.4162 Fold over Wnt 3a/AA control and the “HNF-3b Expression Total Intensity” value ([4]; total intensity) was 269025000. For the same molecule, the “HNF-3b Expression Fold over Wnt 3a/AA control” value [4, 6] was 0.2428 Fold over Wnt 3a/AA control, the “SOX-17 Expression Total Intensity” value ([5]; total intensity) was 324450000 and the “SOX-17 Expression Fold over Wnt 3a/AA control” value [5, 6] was 0.3336 Fold over Wnt 3a/AA control.

B1: AA only: control wells with base medium, FCS and activin A alone (protein, UniProt P08476 311-426, looked up)
Inhibin beta A chain: GLECDGKVNICCKKQFFVSFKDIGWNDWIIAPSGYHANYCEGECPSHIAGTSGSSLSFHSTVINHYRMRGHSPFANLKSCCVPTKLRPMSMLYYDDGQNIIKKDIQNMIVEECGCS
In the case of B1, the Average ([1]; control wells without test compound, mean optical density at 490 nm (MTS)) is reported as 0.8889 and 0.7861, the “Raw data (duplicate)” value ([1]; control wells without test compound) is reported as 0.8732 and 0.9046 and 0.7674 and 0.8047 and the “% Control” value ([1]; control wells without test compound, relative to AA + Wnt3a) is reported as 106.0% and 98.3%.
